Assay results taken from US20060069132A1, “Azolecarboxamide herbicides” (priority 2004, published 2006).

What was measured:
[1] = test system: barnyardgrass; test: Test A pre-/postemergence herbicide test; assay type: in vivo, Echinochloa crus-galli; details: for Plant response rating, Barnyardgrass: Postemergence; for Barnyardgrass plant response rating: Preemergence
Outline: (§1)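 Seeds sown in sandy loam received a preemergence directed soil spray of compound in non-phytotoxic solvent with surfactant; postemergence plants (2–10 cm, one- to two-leaf stage) were sprayed to runoff at the same time. After ~10 days in greenhouse, injury was rated visually versus untreated controls (0 = no effect, 100 = complete control).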

[2] = test system: large crabgrass; test: Test A pre-/postemergence herbicide test; assay type: in vivo, Digitaria sanguinalis; details: for Plant response rating, Crabgrass, Large: Postemergence; for Crabgrass, Large plant response rating: Preemergence
Outline: as §1

[3] = test system: redroot pigweed; test: Test A pre-/postemergence herbicide test; assay type: in vivo, Amaranthus retroflexus; details: for Plant response rating, Pigweed: Postemergence; for Pigweed plant response rating: Preemergence
Outline: as §1

[4] = test system: velvetleaf; test: Test B pre-/postemergence herbicide test; assay type: in vivo, Abutilon theophrasti; details: for Velvetleaf plant response rating: Preemergence, scale 0 to 100
Outline: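 Pre: seeds sown, then sprayed. Post: 1–4-leaf plants (2–18 cm) sprayed at the same time. Paddy: flooded, treated at 2-leaf stage. Formulation: non-phytotoxic solvent with surfactant. Greenhouse 13–15 days; visual 0–100 score relative to controls.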

[5] = test system: bermudagrass; test: Test C pre-/postemergence herbicide test; assay type: in vivo, Cynodon dactylon; details: for Bermudagrass plant response rating: 500 g ai/ha
Outline: (§2)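 Seeds were planted and sprayed preemergence with test chemicals in a non-phytotoxic solvent mixture containing surfactant; postemergence treatments went onto plants 2 to 18 cm tall (1- to 4-leaf stage). After 12 to 14 days in a greenhouse, injury was rated visually against untreated controls on a 0–100 scale.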

[6] = test system: cocklebur; test: Test C pre-/postemergence herbicide test; assay type: in vivo, Xanthium strumarium; details: for Cocklebur plant response rating: 500 g ai/ha
Outline: as §2

[7] = test system: johnsongrass; test: Test C pre-/postemergence herbicide test; assay type: in vivo, Sorghum halepense; details: for Johnsongrass plant response rating: 500 g ai/ha
Outline: as §2

[8] = test system: eastern black nightshade; test: Test C pre-/postemergence herbicide test; assay type: in vivo, Solanum ptycanthum; details: for Plant response rating, Nightshade / Plant response rating (0 = no effect, 100 = complete control), Nightshade: preemergence; for Plant response rating (0 = no effect, 100 = complete control), Nightshade: 62 g ai/ha
Outline: as §2

[9] = test system: soybean; test: Test C pre-/postemergence herbicide test; assay type: in vivo, Glycine max; details: for Soybean plant response rating: 500 g ai/ha
Outline: as §2

[10] = 500 g ai/ha, 0 to 100 scale, 0 no effect, 100 complete control
[11] = 2000 g ai/ha, 0 to 100 scale, 0 no effect, 100 complete control
[12] = 500 g ai/ha, visual rating, 0 to 100 scale (0 no effect, 100 complete control)
[13] = Postemergence, 500 g ai/ha, visual rating after 13 to 15 days, scale 0 (no effect) to 100 (complete control)
[14] = preemergence, 125 g ai/ha, 0 to 100 scale, 0 is no effect, 100 is complete control
[15] = 31 g ai/ha, preemergence, scale 0 to 100
[16] = 125 g ai/ha, scale 0-100, preemergence
[17] = Postemergence, 125 g ai/ha, scale 0 to 100, 0 no effect, 100 complete control
[18] = postemergence, 16 g ai/ha, scale 0 to 100
[19] = postemergence, 31 g ai/ha, scale 0 to 100
[20] = postemergence, 62 g ai/ha, scale 0 to 100
[21] = 125 g ai/ha, scale 0 (no effect) to 100 (complete control), visual, 12 to 14 days, preemergence
[22] = 250 g ai/ha, scale 0 to 100 (0 no effect, 100 complete control), visual, 12 to 14 days, preemergence
[23] = Preemergence, scale 0 to 100, 0 no effect, 100 complete control
[24] = Postemergence, 250 g ai/ha, scale 0 to 100, 0 no effect, 100 complete control

C=Cn1nc(C(C)(C)C)cc1C(=O)Nc1cccc(C(=O)NCC)c1 [Compound 33]
Plant response rating, Barnyardgrass [1, 10]: 75
Plant response rating, Barnyardgrass [1, 11]: 90
Barnyardgrass plant response rating [1, 12]: 55
Barnyardgrass plant response rating [1, 11]: 80
Plant response rating, Crabgrass, Large [2, 10]: 65
Plant response rating, Crabgrass, Large [2, 11]: 85
Crabgrass, Large plant response rating [2, 12]: 90
Crabgrass, Large plant response rating [2, 11]: 95
Plant response rating, Pigweed [3, 10]: 85
Plant response rating, Pigweed [3, 11]: 85
Pigweed plant response rating [3, 12]: 100
Pigweed plant response rating [3, 11]: 100
Plant response rating, Velvetleaf [4, 13]: 60
Velvetleaf plant response rating ([4]; 500 g ai/ha): 80
Plant response rating, Velvetleaf [4, 14]: 40
Plant response rating, Bermudagrass ([5]; 16 g ai/ha, scale 0 to 100, 0 no effect, 100 complete control, last section of Table C (species set of preemergence test)): 30
Plant response rating, Bermudagrass [5, 15]: 50
Plant response rating (0 = no effect, 100 = complete control), Bermudagrass ([5]; 62 g ai/ha, preemergence): 80
Plant response rating, Bermudagrass [5, 16]: 90
Plant response rating, Bermudagrass [5, 17]: 30
Plant response rating, Bermudagrass [5, 18]: 0
Plant response rating, Bermudagrass [5, 19]: 20
Plant response rating, Bermudagrass [5, 20]: 20
Plant response rating, Cocklebur [6, 15]: 0
Plant response rating (0 = no effect, 100 = complete control), Cocklebur ([6]; 62 g ai/ha, preemergence): 0
Plant response rating, Cocklebur [6, 16]: 30
Plant response rating, Cocklebur [6, 17]: 70
Plant response rating, Cocklebur [6, 18]: 20
Plant response rating, Cocklebur [6, 20]: 50
Plant response rating, Johnsongrass [7, 15]: 20
Plant response rating (0 = no effect, 100 = complete control), Johnsongrass ([7]; 62 g ai/ha, preemergence): 20
Plant response rating, Johnsongrass [7, 16]: 80
Plant response rating, Johnsongrass [7, 17]: 90
Plant response rating, Johnsongrass [7, 19]: 70
Plant response rating, Johnsongrass [7, 20]: 90
Plant response rating, Nightshade ([8]; 31 g ai/ha, scale 0 to 100): 10
Plant response rating (0 = no effect, 100 = complete control), Nightshade [8]: 60
Plant response rating, Soybean [9, 15]: 0
Plant response rating (0 = no effect, 100 = complete control), Soybean ([9]; 62 g ai/ha, preemergence): 0
Plant response rating, Soybean ([9]; postemergence, 125 g ai/ha, scale 0 to 100): 90
Plant response rating, Soybean [9, 19]: 80
Plant response rating, Soybean [9, 20]: 80

C#CCNC(=O)c1cccc(NC(=O)c2cc(C(C)(C)C)nn2CC)c1 [Compound 47]
Plant response rating, Barnyardgrass [1, 10]: 90
Plant response rating, Barnyardgrass [1, 11]: 100
Barnyardgrass plant response rating [1, 12]: 90
Barnyardgrass plant response rating [1, 11]: 95
Plant response rating, Crabgrass, Large [2, 10]: 85
Plant response rating, Crabgrass, Large [2, 11]: 100
Crabgrass, Large plant response rating [2, 12]: 55
Crabgrass, Large plant response rating [2, 11]: 90
Plant response rating, Pigweed [3, 10]: 100
Plant response rating, Pigweed [3, 11]: 100
Pigweed plant response rating [3, 12]: 100
Pigweed plant response rating [3, 11]: 100
Plant response rating, Velvetleaf [4, 13]: 70
Velvetleaf plant response rating ([4]; 500 g ai/ha): 100
Plant response rating, Velvetleaf [4, 14]: 30
Plant response rating (0 = no effect, 100 = complete control), Bermudagrass ([5]; 62 g ai/ha, preemergence): 90
Plant response rating, Bermudagrass [5, 21]: 100
Plant response rating, Bermudagrass [5, 22]: 100
Bermudagrass plant response rating ([5]; Postemergence, scale 0 to 100): 60
Bermudagrass plant response rating [5, 23]: 100
Plant response rating, Bermudagrass [5, 20]: 60
Plant response rating (0 = no effect, 100 = complete control), Cocklebur ([6]; 62 g ai/ha, preemergence): 0
Plant response rating, Cocklebur [6, 21]: 0
Plant response rating, Cocklebur [6, 22]: 0
Cocklebur plant response rating ([6]; Postemergence, scale 0 to 100): 90
Plant response rating, Cocklebur [6, 17]: 70
Plant response rating, Cocklebur [6, 24]: 70
Cocklebur plant response rating [6, 23]: 100
Plant response rating, Cocklebur [6, 20]: 50
Plant response rating (0 = no effect, 100 = complete control), Johnsongrass ([7]; 62 g ai/ha, preemergence): 20
Plant response rating, Johnsongrass [7, 21]: 100
Plant response rating, Johnsongrass [7, 22]: 100
Johnsongrass plant response rating ([7]; Postemergence, scale 0 to 100): 90
Plant response rating, Johnsongrass [7, 17]: 30
Plant response rating, Johnsongrass [7, 24]: 90
Johnsongrass plant response rating [7, 23]: 100
Plant response rating, Johnsongrass [7, 20]: 30
Plant response rating (0 = no effect, 100 = complete control), Nightshade [8]: 100
Plant response rating, Nightshade ([8]; 125 g ai/ha, scale 0 (no effect) to 100 (complete control), visual, 12 to 14 days): 100
Plant response rating, Nightshade ([8]; 250 g ai/ha, scale 0 to 100 (0 no effect, 100 complete control), visual, 12 to 14 days): 100
Nightshade plant response rating ([8]; Preemergence, 500 g ai/ha, scale 0 to 100, 0 no effect, 100 complete control): 100
Plant response rating (0 = no effect, 100 = complete control), Soybean ([9]; 62 g ai/ha, preemergence): 0
Plant response rating, Soybean [9, 21]: 0
Plant response rating, Soybean [9, 22]: 10
Soybean plant response rating ([9]; Postemergence, scale 0 to 100): 100
Plant response rating, Soybean [9, 24]: 100
Soybean plant response rating [9, 23]: 20
Plant response rating, Soybean [9, 20]: 100
